Measured values from ChEMBL document CHEMBL3232945 (Eur J Med Chem, 2014).

Key:
Rattus norvegicus [1] = test: Toxicity in anaesthetized-Wistar rat assessed as P-Q ECG interval at 40 mg/kg, ip after 60 mins (reference value: […] +/- 0.924 ms); assay type: organism-based; design: dose 40 mg/kg, route intraperitoneal; settings: in vivo, 1 h
Rattus norvegicus [2] = test: Toxicity in anaesthetized-Wistar rat assessed as P-Q ECG interval at 40 mg/kg, ip after 45 mins (reference value: 52.5 +/- 0.780 ms); assay type: organism-based; design: dose 40 mg/kg, route intraperitoneal; settings: in vivo, 0.75 h
Rattus norvegicus [3] = test: Toxicity in anesthetized-normotensive Wistar rat assessed as heart rate at 40 mg/kg, ip after 60 mins (reference value: 314.96 +/- 9.442 bpm); assay type: organism-based; design: dose 40 mg/kg, route intraperitoneal; settings: in vivo, 1 h
Rattus norvegicus [4] = test: Toxicity in anesthetized-normotensive Wistar rat assessed as heart rate at 40 mg/kg, ip measured immediately at 0 min (reference value: 316.62 +/- 9.643 bpm); assay type: organism-based; design: dose 40 mg/kg, route intraperitoneal; settings: in vivo, 0 h
Rattus norvegicus [5] = test: Toxicity in anaesthetized-Wistar rat assessed as Q-T ECG interval at 40 mg/kg, ip after 60 mins (reference value: 79.7 +/- 0.965 ms); assay type: organism-based; design: dose 40 mg/kg, route intraperitoneal; settings: in vivo, 1 h
Rattus norvegicus [6] = test: Toxicity in […] normotensive Wistar rat assessed as mean arterial pressure at 40 mg/kg, ip measured immediately at 0 min (reference value: 94.21 +/- 2.065 mmHg); assay type: organism-based, Artery; design: dose 40 mg/kg, route intraperitoneal; settings: in vivo, 0 h
Rattus norvegicus [7] = test: Toxicity in anaesthetized-Wistar rat assessed as QRS ECG interval at 40 mg/kg, ip after 45 mins (reference value: 20.2 +/- 1.348 ms); assay type: organism-based; design: dose 40 mg/kg, route intraperitoneal; settings: in vivo, 0.75 h
Rattus norvegicus [8] = test: Toxicity in anaesthetized-Wistar rat assessed as Q-T ECG interval at 40 mg/kg, ip measured immediately at 0 min (reference value: 78.8 +/- 1.030 ms); assay type: organism-based; design: dose 40 mg/kg, route intraperitoneal; settings: in vivo, 0 h
Rattus norvegicus [9] = test: Toxicity in anaesthetized-Wistar rat assessed as P-Q ECG interval at 40 mg/kg, ip measured immediately at 0 min (reference value: 52.4 +/- 0.927 ms); assay type: organism-based; design: dose 40 mg/kg, route intraperitoneal; settings: in vivo, 0 h
Rattus norvegicus [10] = test: Toxicity in anaesthetized-Wistar rat assessed as QRS ECG interval at 40 mg/kg, ip measured immediately at 0 min (reference value: 19.6 +/- 1.142 ms); assay type: organism-based; design: dose 40 mg/kg, route intraperitoneal; settings: in vivo, 0 h
Rattus norvegicus [11] = test: Toxicity in anesthetized-normotensive Wistar rat assessed as heart rate at 40 mg/kg, ip after 45 mins (reference value: 316.82 +/- 8.452 bpm); assay type: organism-based; design: dose 40 mg/kg, route intraperitoneal; settings: in vivo, 0.75 h
Rattus norvegicus [12] = test: Antihypertensive activity in Wistar rat assessed as mean arterial pressure at 40 mg/kg, ip after 15 mins (reference value: 195.68 +/- 1.623 mmHg); assay type: functional, Artery; settings: route intraperitoneal
Rattus norvegicus [13] = test: Toxicity in anesthetized-normotensive Wistar rat assessed as heart rate at 40 mg/kg, ip after 15 mins (reference value: 313.93 +/- 9.912 bpm); assay type: organism-based; design: dose 40 mg/kg, route intraperitoneal; settings: in vivo, 0.25 h
Rattus norvegicus [14] = test: Toxicity in […] normotensive Wistar rat assessed as mean arterial pressure at 40 mg/kg, ip after 30 mins (reference value: 94.68 +/- 1.213 mmHg); assay type: organism-based, Artery; design: dose 40 mg/kg, route intraperitoneal; settings: in vivo, 0.5 h
Rattus norvegicus [15] = test: Antihypertensive activity in Wistar rat assessed as mean arterial pressure at 40 mg/kg, ip after 45 mins (reference value: 193.96 +/- 0.865 mmHg); assay type: functional, Artery; settings: route intraperitoneal
Rattus norvegicus [16] = test: Toxicity in anesthetized-normotensive Wistar rat assessed as heart rate at 40 mg/kg, ip after 30 mins (reference value: 317.68 +/- 7.631 bpm); assay type: organism-based; design: dose 40 mg/kg, route intraperitoneal; settings: in vivo, 0.5 h
Rattus norvegicus [17] = test: Toxicity in anaesthetized-Wistar rat assessed as QRS ECG interval at 40 mg/kg, ip after 30 mins (reference value: 19.9 +/- 1.393 ms); assay type: organism-based; design: dose 40 mg/kg, route intraperitoneal; settings: in vivo, 0.5 h
Rattus norvegicus [18] = test: Antiarrhythmic activity in barium chloride-induced Wistar rat assessed as increase in mortality time at 40 mg/kg, ip administered 60 mins before barium chloride challenge (reference value: 682.8 +/- 9.656 secs); assay type: functional, Heart; settings: route intraperitoneal
Rattus norvegicus [19] = test: Antihypertensive activity in Wistar rat assessed as mean arterial pressure at 40 mg/kg, ip after 60 mins (reference value: 195.11 +/- 0.531 mmHg); assay type: functional, Artery; settings: route intraperitoneal
Rattus norvegicus [20] = test: Antihypertensive activity in Wistar rat assessed as mean arterial pressure at 40 mg/kg, ip after 30 mins (reference value: 194.72 +/- 1.002 mmHg); assay type: functional, Artery; settings: route intraperitoneal
Rattus norvegicus [21] = test: Antiarrhythmic activity in barium chloride-induced Wistar rat assessed as increase in appearance time of arrhythmia at 40 mg/kg, ip administered 60 mins before barium chloride challenge (reference value: 129.4 +/- 4.373 sec); assay type: functional, Heart; settings: route intraperitoneal
Rattus norvegicus [22] = test: Toxicity in anaesthetized-Wistar rat assessed as P-Q ECG interval at 40 mg/kg, ip after 15 mins (reference value: 52.2 +/- 1.158 ms); assay type: organism-based; design: dose 40 mg/kg, route intraperitoneal; settings: in vivo, 0.25 h
Rattus norvegicus [23] = test: Toxicity in anaesthetized-Wistar rat assessed as QRS ECG interval at 40 mg/kg, ip after 15 mins (reference value: 18.9 +/- 1.563 ms); assay type: organism-based; design: dose 40 mg/kg, route intraperitoneal; settings: in vivo, 0.25 h
Rattus norvegicus [24] = test: Toxicity in anaesthetized-Wistar rat assessed as QRS ECG interval at 40 mg/kg, ip after 60 mins (reference value: 19.3 +/- 0.873 ms); assay type: organism-based; design: dose 40 mg/kg, route intraperitoneal; settings: in vivo, 1 h
Rattus norvegicus [25] = test: Toxicity in anaesthetized-Wistar rat assessed as Q-T ECG interval at 40 mg/kg, ip after 30 mins (reference value: 78.3 +/- 0.860 ms); assay type: organism-based; design: dose 40 mg/kg, route intraperitoneal; settings: in vivo, 0.5 h
Rattus norvegicus [26] = test: Antihypertensive activity in Wistar rat assessed as mean arterial pressure at 40 mg/kg, ip measured immediately at 0 min (reference value: 194.08 +/- 1.962 mmHg); assay type: functional, Artery; settings: route intraperitoneal
Rattus norvegicus [27] = test: Toxicity in anaesthetized-Wistar rat assessed as P-Q ECG interval at 40 mg/kg, ip after 30 mins (reference value: […] +/- 0.927 ms); assay type: organism-based; design: dose 40 mg/kg, route intraperitoneal; settings: in vivo, 0.5 h
Rattus norvegicus [28] = test: Toxicity in […] normotensive Wistar rat assessed as mean arterial pressure at 40 mg/kg, ip after 15 mins (reference value: 93.81 +/- 1.543 mmHg); assay type: organism-based, Artery; design: dose 40 mg/kg, route intraperitoneal; settings: in vivo, 0.25 h
Rattus norvegicus [29] = test: Toxicity in anaesthetized-Wistar rat assessed as Q-T ECG interval at 40 mg/kg, ip after 15 mins (reference value: 79.4 +/- 1.270 ms); assay type: organism-based; design: dose 40 mg/kg, route intraperitoneal; settings: in vivo, 0.25 h
Rattus norvegicus [30] = test: Toxicity in […] normotensive Wistar rat assessed as mean arterial pressure at 40 mg/kg, ip after 45 mins (reference value: 94.83 +/- 0.943 mmHg); assay type: organism-based, Artery; design: dose 40 mg/kg, route intraperitoneal; settings: in vivo, 0.75 h
Rattus norvegicus [31] = test: Toxicity in […] normotensive Wistar rat assessed as mean arterial pressure at 40 mg/kg, ip after 60 mins (reference value: 95.07 +/- 1.973 mmHg); assay type: organism-based, Artery; design: dose 40 mg/kg, route intraperitoneal; settings: in vivo, 1 h

SMILES	Activity (Rattus norvegicus [1]) [min]	Activity (Rattus norvegicus [2]) [min]	Activity (Rattus norvegicus [3]) [bpm]	Activity (Rattus norvegicus [4]) [bpm]	Activity (Rattus norvegicus [5]) [ms]	Activity (Rattus norvegicus [6]) [mmHg]	Activity (Rattus norvegicus [7]) [min]	Activity (Rattus norvegicus [8]) [min]	Activity (Rattus norvegicus [9]) [ms]	Activity (Rattus norvegicus [10]) [min]	Activity (Rattus norvegicus [11]) [bpm]	Activity (Rattus norvegicus [12]) [mmHg]	Activity (Rattus norvegicus [13]) [bpm]	Activity (Rattus norvegicus [14]) [mmHg]	Activity (Rattus norvegicus [15]) [mmHg]	Activity (Rattus norvegicus [16]) [bpm]	Activity (Rattus norvegicus [17]) [ms]	Time (Rattus norvegicus [18]) [s]	Activity (Rattus norvegicus [19]) [mmHg]	Activity (Rattus norvegicus [20]) [mmHg]	further results
CN1CCN(CC(O)CN2C(=O)/C(=C\c3ccccc3)S/C2=N\c2ccccc2)CC1 (configuration not stated)	55.6	54.9	302.28	305.65	75.6	91.93	23.6	74.5	53	22.4	283.56	182.76	290.24	63.43	134.44	256.32	23.2	1276	162.19	157.99	Time (Rattus norvegicus [21]): 349.7 s; Activity (Rattus norvegicus [22]): 53.2 min; Activity (Rattus norvegicus [23]): 22.6 min; Activity (Rattus norvegicus [24]): 24 min; Activity (Rattus norvegicus [25]): 75.2 min; Activity (Rattus norvegicus [26]): 196.43 mmHg; Activity (Rattus norvegicus [27]): 54.4 min; Activity (Rattus norvegicus [28]): 79.37 mmHg; Activity (Rattus norvegicus [29]): 74.8 min; Activity (Rattus norvegicus [30]): 64.51 mmHg; Activity (Rattus norvegicus [31]): 74.63 mmHg
O=C1/C(=C\c2ccccc2)S/C(=N\c2ccccc2)N1CC(O)CN1CCCCC1 (configuration not stated)	51.5	50.6	303.32	308.43	71.8	94.65	22.8	72.7	52.2	20.2	274.15	165.33	297.54	72.76	145.87	268.74	21.9	886.9	166.84	134.16	Time (Rattus norvegicus [21]): 279.3 s; Activity (Rattus norvegicus [22]): 51.7 min; Activity (Rattus norvegicus [23]): 21.5 min; Activity (Rattus norvegicus [24]): 22.6 min; Activity (Rattus norvegicus [25]): 73.3 min; Activity (Rattus norvegicus [26]): 194.76 mmHg; Activity (Rattus norvegicus [27]): 51.9 min; Activity (Rattus norvegicus [28]): 82.63 mmHg; Activity (Rattus norvegicus [29]): 72.9 min; Activity (Rattus norvegicus [30]): 64.69 mmHg; Activity (Rattus norvegicus [31]): 76.12 mmHg
